Laboratory results published in article PMC3119665, “A New Drug Design Targeting the Adenosinergic System for Huntington's Disease” (PLoS ONE, 2011).

What was measured:
Muscarinic M3 = molecular target: T1, Muscarinic M3 (Homo sapiens, UniProt P20309); test: Radioligand binding panel (Table S1); conditions: 10 μM T1-11, n 2
T1 construct: purchased MDS Pharma Services Taiwan

human A3R = molecular target: T2, human A3R (Homo sapiens, UniProt P0DMS8); test: GTPγS binding assay; type: biochemical
T2 construct: host or cells: CHO-K1
T2 sequence (P0DMS8 whole entry): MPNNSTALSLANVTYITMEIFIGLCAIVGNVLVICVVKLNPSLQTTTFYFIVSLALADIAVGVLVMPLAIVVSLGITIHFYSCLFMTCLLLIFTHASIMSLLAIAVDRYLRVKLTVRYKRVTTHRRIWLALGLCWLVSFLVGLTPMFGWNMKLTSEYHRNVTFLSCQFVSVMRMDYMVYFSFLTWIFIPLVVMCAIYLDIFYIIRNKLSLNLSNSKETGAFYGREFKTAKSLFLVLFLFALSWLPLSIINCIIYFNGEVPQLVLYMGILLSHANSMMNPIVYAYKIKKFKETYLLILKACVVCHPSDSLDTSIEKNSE
Method: The GTPγS binding assay was conducted by MDS Pharma Services Taiwan using a previously described protocol with slight modifications. In brief, membrane proteins collected from Chinese hamster ovary (CHO-K1) cells expressing the human A3R (5∼10 µg per reaction) were incubated with the indicated drug and ^35S-GTPγS (0.1 nM) in a total volume of 500 µl for 30 min at 30°C. The reaction buffer was composed of 20 mM HEPES (pH 7.4), 100 mM NaCl, 10 mM MgCl2, 1 mM DTT, and 1 mM EDTA. The reaction was terminated by filtration over GF/B glass fibers and washed with the same reaction buffer. Relative GTPγS binding was defined as the percentage of ^35S-GTPγS binding when compared to that of a selective agonist of the A3R (2-Cl-IB-MECA, 3 µM) under the same binding conditions.
Supplementary file pone.0020934.s004.tif: Figure S4 T1-11 binds to the A3 adenosine receptor (A3R) without evoking a significant binding of GTP. Membrane fractions collected from CHO-K1 cells expressing the human A3R were incubated with T1-11 at the indicated concentration and ^35S-GTPγS (0.1 nM) for 30 min at 30°C. Relative GTPγS binding was defined as the percentage of ^35S-GTPγS binding when compared with a selective agonist of the A3R (2-Cl-IB-MECA, 3 µM). (TIF) Click here for additional data file.

[1] = molecular target: T3, Leukotriene, Cysteinyl CysLT1 (Homo sapiens, UniProt Q9Y271); test: Radioligand binding panel (Table S1); conditions: 10 μM T1-11, n 2
T3 construct: purchased MDS Pharma Services Taiwan
T3 sequence (Q9Y271 whole entry): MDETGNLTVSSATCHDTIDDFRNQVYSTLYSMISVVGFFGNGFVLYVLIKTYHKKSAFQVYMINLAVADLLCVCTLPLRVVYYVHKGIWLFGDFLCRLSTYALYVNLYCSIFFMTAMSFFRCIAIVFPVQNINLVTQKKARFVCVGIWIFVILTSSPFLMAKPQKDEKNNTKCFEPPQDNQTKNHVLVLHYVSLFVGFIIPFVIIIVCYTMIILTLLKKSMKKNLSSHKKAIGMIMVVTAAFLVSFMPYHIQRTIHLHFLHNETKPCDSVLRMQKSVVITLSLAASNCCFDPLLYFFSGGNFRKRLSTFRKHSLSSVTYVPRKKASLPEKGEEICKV

T1 sequence (P20309 whole entry): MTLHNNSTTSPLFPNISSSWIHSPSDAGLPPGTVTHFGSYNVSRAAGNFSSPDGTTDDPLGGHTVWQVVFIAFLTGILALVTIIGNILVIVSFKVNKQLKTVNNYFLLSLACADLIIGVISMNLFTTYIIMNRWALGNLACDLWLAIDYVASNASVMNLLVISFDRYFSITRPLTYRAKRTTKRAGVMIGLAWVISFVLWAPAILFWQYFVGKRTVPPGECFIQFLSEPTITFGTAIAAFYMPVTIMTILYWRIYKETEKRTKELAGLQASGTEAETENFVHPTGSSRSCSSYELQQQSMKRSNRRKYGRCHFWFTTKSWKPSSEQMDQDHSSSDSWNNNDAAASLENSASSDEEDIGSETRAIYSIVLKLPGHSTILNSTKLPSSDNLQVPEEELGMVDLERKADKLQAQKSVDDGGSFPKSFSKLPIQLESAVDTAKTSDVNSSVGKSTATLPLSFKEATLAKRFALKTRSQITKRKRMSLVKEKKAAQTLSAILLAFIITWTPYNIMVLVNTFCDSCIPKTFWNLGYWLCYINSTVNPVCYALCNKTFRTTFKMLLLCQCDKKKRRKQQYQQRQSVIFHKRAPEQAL

`OC[C@H]1O[C@@H](n2cnc3c(NCc4ccc(O)cc4)ncnc32)[C@H](O)[C@@H]1O` [T1-11, N ^6-(4-hydroxybenzyl)adenine riboside] was tested, and the inhibition at 10 µM (Muscarinic M3) was -6%, the “GTP binding compared to 2-Cl-IB-MECA (3 µM)” value (human A3R; 100 µM T1-11) was “less than 50%” and the Function (human A3R; A3 adenosine receptor, GTPγS binding, n.s. = not significant) was “n.s”. The inhibition at 10 µM [1] was -4%.
